Patent US5194371A, “Production of pradimicin antibiotics” (Bristol-Myers Squibb Company, priority 1991, dated 1993)

Legend:
Candida albicans A9540 = experiment: In vivo efficacy against C. albicans A9540 systemic infection in mice; parameters: species or system male ICR mice infected with Candida albicans; settings: A9540, iv, 504 h, i.v., single dose immediately after challenge, survival on day 21, read-out: PD50 (median protective dose)
Procedure: The in vivo efficacy of BMY-28960 was evaluated against Candida albicans A9540 systemic infection in male ICR mice (20-24 g body weight). Five mice are used for each dose level. Mice were challenged intravenously with 10 times the median lethal dose of the pathogen suspended in saline and BMY-28960 was intravenously administered once immediately after the challenge. The median protective dose (PD50) was calculated from survival rates recorded on day 21.

[1] = Tolerability following intravenous administration in ICR mice; type: in vivo; settings: i.v., up to 600 mg/kg
strain AB 1236 = experiment: Antibiotic susceptibility of strain AB 1236 (antibiotic disks); type: cell-based, Actinomadura sp. AB 1236; settings: 37° C., 4 days
Procedure: Antibiotic susceptibility of strain AB 1236 was tested using antibiotic disks (Tridisk, Eiken Chemical Co., Ltd.). The disks were placed onto the surface of yeast-glucose-malt agar (yeast extract 0.1%, glucose 1%, malt extract 0.1%, CaCl2.2H2 O 0.05% and agar 1.5%) which had been seeded by strain AB 1236 (4% inoculum), and the plates were then incubated at 37° C. for 4 days. Strain AB 1236 was resistant to 50 μg of fosfomycin and 300 U of polymixin B, and susceptible to 20 U of ampicillin, 1 μg of clavulanic acid, 2 μg of ticarcillin, 10 μg of cephalexin, 30 μg of tetracycline, 10 μg of chloramphenicol, 0.5 μg of erythromycin, 2 μg of josamycin, 2 μg of lincomycin, 5 μg of kanamycin, 5 μg of gentamicin, 5 μg of tobramycin, 2 μg of nalidixic acid, 2 μg of norfloxacin and 50 U of colistin.

C[C@@H]1[C@H](O)[C@@H](C)/C=C/C=C/C=C/C=C/C=C/C=C/C=C/[C@H](O[C@@H]2O[C@H](C)[C@@H](O)[C@H](N)[C@@H]2O)C[C@@H]2O[C@](O)(C[C@@H](O)C[C@@H](O)[C@H](O)CC[C@@H](O)C[C@@H](O)CC(=O)O[C@H]1C)C[C@H](O)[C@H]2C(=O)O [Amphotericin B]
ED50 (Candida albicans A9540): 0.31 mg/kg

COc1cc(O)c2c(c1)C(=O)c1c(cc3c(c1O)-c1c(cc(C)c(C(=O)N[C@H](CO)C(=O)O)c1O)[C@H](O[C@@H]1O[C@H](C)[C@H](O)[C@H](O[C@@H]4OC[C@@H](O)[C@H](O)[C@H]4O)[C@H]1O)[C@H]3O)C2=O [BMY-28960, 4'-deamino-4'-axial-hydroxypradimicin FA-2]
ED50 (Candida albicans A9540): 6.7 mg/kg
Lethality and apparent side effects [1]: neither lethality nor apparent side effects were noted
Solubility in solvent (Solubility in solvent; Dimethyl sulfoxide, N,N-dimethylformamide and alkaline water): Soluble
Solubility in solvent (Solubility in solvent; Ethanol, methanol and acetone): Slightly soluble
Solubility in solvent (Solubility in solvent; Ethyl acetate, benzene, chloroform, acidic water, etc.): Isoluble

OC(Cn1cncn1)(Cn1cncn1)c1ccc(F)cc1F [Fluconazole]
ED50 (Candida albicans A9540): > 50 mg/kg

CN[C@@H]1[C@H](O[C@@H]2OC[C@@H](O)[C@H](O)[C@H]2O)[C@@H](O)[C@H](O[C@H]2c3cc(C)c(C(=O)N[C@H](C)C(=O)O)c(O)c3-c3c(cc4c(c3O)C(=O)c3cc(OC)cc(O)c3C4=O)[C@@H]2O)O[C@@H]1C [Pradimicin A]
ED50 (Candida albicans A9540): 10 mg/kg

CC1(C)S[C@@H]2[C@H](NC(=O)[C@H](N)c3ccccc3)C(=O)N2[C@H]1C(=O)O [ampicillin]
Antibiotic susceptibility of strain AB 1236 (strain AB 1236; disk 20 U): susceptible

CC1=C(C(=O)O)N2C(=O)[C@@H](NC(=O)[C@H](N)c3ccccc3)[C@H]2SC1 [cephalexin]
Antibiotic susceptibility of strain AB 1236 (strain AB 1236; disk 10 μg): susceptible

O=C(N[C@H](CO)[C@H](O)c1ccc([N+](=O)[O-])cc1)C(Cl)Cl [chloramphenicol]
Antibiotic susceptibility of strain AB 1236 (strain AB 1236; disk 10 μg): susceptible

O=C(O)[C@H]1/C(=C/CO)O[C@@H]2CC(=O)N21 [clavulanic acid]
Antibiotic susceptibility of strain AB 1236 (strain AB 1236; disk 1 μg): susceptible

CC[C@H]1OC(=O)[C@H](C)[C@@H](O[C@H]2C[C@@](C)(OC)[C@@H](O)[C@H](C)O2)[C@H](C)[C@@H](O[C@@H]2O[C@H](C)C[C@H](N(C)C)[C@H]2O)[C@](C)(O)C[C@@H](C)C(=O)[C@H](C)[C@@H](O)[C@]1(C)O [erythromycin]
Antibiotic susceptibility of strain AB 1236 (strain AB 1236; disk 0.5 μg): susceptible

C[C@@H]1O[C@@H]1P(=O)(O)O [fosfomycin]
Antibiotic susceptibility of strain AB 1236 (strain AB 1236; disk 50 μg): resistant

NC[C@H]1O[C@H](O[C@H]2[C@H](O)[C@@H](O[C@H]3O[C@H](CO)[C@@H](O)[C@H](N)[C@H]3O)[C@H](N)C[C@@H]2N)[C@H](O)[C@@H](O)[C@@H]1O [kanamycin]
Antibiotic susceptibility of strain AB 1236 (strain AB 1236; disk 5 μg): susceptible

CCC[C@@H]1C[C@@H](C(=O)N[C@@H]([C@H]2O[C@H](SC)[C@H](O)[C@@H](O)[C@H]2O)[C@@H](C)O)N(C)C1 [lincomycin]
Antibiotic susceptibility of strain AB 1236 (strain AB 1236; disk 2 μg): susceptible

CCn1cc(C(=O)O)c(=O)c2ccc(C)nc21 [nalidixic acid]
Antibiotic susceptibility of strain AB 1236 (strain AB 1236; disk 2 μg): susceptible

CCn1cc(C(=O)O)c(=O)c2cc(F)c(N3CCNCC3)cc21 [norfloxacin]
Antibiotic susceptibility of strain AB 1236 (strain AB 1236; disk 2 μg): susceptible

CN(C)C1C(=O)C(C(N)=O)=C(O)C2(O)C(=O)C3=C(O)c4c(O)cccc4C(C)(O)C3CC12 (stereo not shown) [tetracycline]
Antibiotic susceptibility of strain AB 1236 (strain AB 1236; disk 30 μg): susceptible

CC1(C)S[C@@H]2[C@H](NC(=O)[C@H](C(=O)O)c3ccsc3)C(=O)N2[C@H]1C(=O)O [ticarcillin]
Antibiotic susceptibility of strain AB 1236 (strain AB 1236; disk 2 μg): susceptible

NC[C@H]1O[C@H](O[C@H]2[C@H](O)[C@@H](O[C@H]3O[C@H](CO)[C@@H](O)[C@H](N)[C@H]3O)[C@H](N)C[C@@H]2N)[C@H](N)C[C@@H]1O [tobramycin]
Antibiotic susceptibility of strain AB 1236 (strain AB 1236; disk 5 μg): susceptible

colistin
Antibiotic susceptibility of strain AB 1236 (strain AB 1236; disk 50 U): susceptible

gentamicin
Antibiotic susceptibility of strain AB 1236 (strain AB 1236; disk 5 μg): susceptible

josamycin
Antibiotic susceptibility of strain AB 1236 (strain AB 1236; disk 2 μg): susceptible

polymixin B
Antibiotic susceptibility of strain AB 1236 (strain AB 1236; disk 300 U): resistant
